{"source": "patent US20160312240A1", "about": "“MODIFIED PYR/PYL RECEPTORS ACTIVATED BY ORTHOGONAL LIGANDS” (The Regents of the University of California, priority 2010, published 2016)", "key": {"[1]": {"tested_on": "PYR1 variants 27C-1, 27C-2, 27C-3, 27C-5, 27C-16, 27C-18, 27C-19, 27C-20, 27C-21 (Table 8)", "test": "MAV99 growth selection, third round of shuffling", "format": "cell-based, Arabidopsis", "details": "1.5 μM fenhexamid; media lacking uracil; Table 8 variants", "method": "A third round of shuffling was conducted by combining DNA for the “27B′” mutants shown in Table 7 and ePCR1 library to create a library of ˜150,000 clones which was then transformed into MAV99 pAD-HAB 1. Constitutive mutants were then depleted by growth on FOA after which fenhexamid sensitive mutants were selected by growth on media lacking uracil but containing 1.5 μM fenhexamid, using the methods described above."}, "[2]": {"tested_on": "control lines (Columbia wild-type; wild-type PYL2 overexpression line)", "test": "Seedling germination/growth on fenhexamid", "format": "in vivo, Arabidopsis", "details": "100 μM fenhexamid, germinated in the dark, scored two days post-imbibition, FIG. 4", "from_the_text": "(§1) FIG. 4. Characterization of seedling responses to fenhexamid in 35S::GFP-PYL2 K64R, Y124H, M164I, V67I, V114I transgenic plants. […] Shown are segregating GFP-expressing T2 seedlings from primary transgenic plants (T1). Columbia is the wild-type background and is non-transgenic. Two independent PYL2 K64R, Y124H, M164I, V67I, V114I (“PYL2 MUT”) transgenic lines were characterized in addition to a wild-type PYL2 overexpression line. Seeds from respective lines were germinated in the dark on media containing 100 μM fenhexamid and scored two days post-imbibition.\n(§2) To investigate if the fenhexamid response observed in yeast and in vitro experiments would function in plants, transgenic 35S::GFP-PYL2 and 35S::GFP-PYL2^K64R,Y124H,M164I,V67I,V114I plants were constructed using standard molecular cloning methods into a modified version of pEGAD (Cutler et al., Proc Natl Acad Sci U.S.A. 97:3718-3723 (2000)) in which a 6×-histidine tag was added onto the N-terminus of GFP. Transgenic plants were made using the floral-dip method and primary transgenics (T1) identified by screening seedlings by epi-fluorescence using a Leica GFP dissecting microscope. The GFP^+ transgenic plants were grown to maturity and T2 seed collected for further analyses. […]"}, "[3]": {"tested_on": "35S::GFP-PYL2 K64R,Y124H,M164I,V67I,V114I transgenic plants", "test": "Seedling germination/growth on fenhexamid", "format": "in vivo, Arabidopsis", "details": "100 μM fenhexamid; T2 seedlings expressing mutant PYL2; FIG. 4", "from_the_text": "as §1, §2"}, "[4]": {"molecular_target": "T1, 6×-His-PYR1(27-18) (S47P, K59R, Y120H) (Arabidopsis thaliana, UniProt O49686, K59R/S47P/Y120H)", "T1 construct": "6x-His (N); made in house", "T1 sequence (O49686 whole entry S47P/K59R/Y120H)": "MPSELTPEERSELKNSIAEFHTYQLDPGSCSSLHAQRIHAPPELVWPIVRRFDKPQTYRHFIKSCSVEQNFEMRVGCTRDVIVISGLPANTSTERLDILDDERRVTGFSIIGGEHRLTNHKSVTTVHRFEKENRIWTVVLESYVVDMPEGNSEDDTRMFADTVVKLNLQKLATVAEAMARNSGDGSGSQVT", "T1 sequence (Q9CAJ0 23-511, stated change not applied, further chain)": "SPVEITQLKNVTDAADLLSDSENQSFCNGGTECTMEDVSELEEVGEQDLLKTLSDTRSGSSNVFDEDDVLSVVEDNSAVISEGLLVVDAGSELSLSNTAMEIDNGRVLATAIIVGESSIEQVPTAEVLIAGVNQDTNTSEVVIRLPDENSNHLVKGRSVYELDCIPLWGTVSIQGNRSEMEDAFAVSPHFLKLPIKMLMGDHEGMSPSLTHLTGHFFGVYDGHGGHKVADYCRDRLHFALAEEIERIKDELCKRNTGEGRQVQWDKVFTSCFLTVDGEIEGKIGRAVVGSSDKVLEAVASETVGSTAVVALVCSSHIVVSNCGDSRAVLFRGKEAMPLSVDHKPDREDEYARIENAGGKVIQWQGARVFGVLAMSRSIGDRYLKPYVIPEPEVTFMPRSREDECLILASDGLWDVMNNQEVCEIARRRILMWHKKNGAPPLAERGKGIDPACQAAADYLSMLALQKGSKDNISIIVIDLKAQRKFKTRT", "test": "In vitro PP2C phosphatase activity assay (receptor activation = inhibition of PP2C)", "format": "biochemical", "details": "mutant 27-18; increasing concentrations; 10 mM Mn++ buffer; FIG. 1", "method": "FIGS. 1A-1B. PYR1 mutant 27-18 confers responsiveness to fenhexamid but not ABA. Representative PYR1 mutant 27-18 (comprising S47P, K59R, and Y120H substitution mutations) was tested for responsiveness to abscisic acid (“ABA”) (FIG. 1A) and fenhexamid (FIG. 1B) at increasing concentrations as compared to a wild-type PYR1 control using an in vitro PP2C phosphatase activity assay.\nTo probe orthogonal receptor-ligand interactions further, recombinant protein was expressed for the fenhexamid-responsive mutant 27-18, which has three mutations in PYR1. 6×-His-PYR1(27-18) protein was expressed and purified alongside wild-type PYR1 protein. Both proteins were tested for their ability to inhibit PP2C activity in response to increasing concentrations of either ABA or fenhexamid using phosphatase activity assays, in which activation of the PYR/PYL receptor is monitored by inhibition of PP2C activity (FIG. 1)."}, "[5]": {"tested_on": "wild-type Columbia plants", "test": "Water loss from detached aerial rosettes", "format": "in vivo, Arabidopsis", "details": "100 μM spray, approximately 16 hours pretreatment, FIG. 7", "method": "FIG. 7. […] Columbia plants were treated with control, 100 μM fenhexamid, or 100 μM ABA containing solutions. Plants were treated as described in the Examples section below and water loss from aerial rosettes was measured after detachment.\nTransgenic or control (wild-type) plants were grown under a 16 hr light/8 hr dark cycle for 3 weeks and then treated with either 100 μM (+)-ABA, 100 μM fenhexamid, or control (containing 0.1% Tween-20, 0.1% DMSO). ABA treatments were conducted as a positive control. The plants were sprayed in the evening prior to conducting water loss experiments. The next morning, approximately 16 hours post-treatment, the above-ground rosettes of the experimental samples were collected and transferred to weighing dishes, 8 plants per measured sample, and maintained under ˜90-100 μEinstein/m^2 fluorescent light illumination. Four groups of eight plants were measured per time point at 20 min intervals. The experiments were repeated three times over the course of an eight-week interval. […] It should be noted, however, that ABA can activate all of the PYR/PYL receptors in a plant genome (at least 13 in Arabidopsis), while fenhexamid is selectively activating a single engineered receptor, PYL2^K64R,Y124H,M164I,V67I,V114I. […]"}, "[6]": {"tested_on": "PYL2 K64R,Y124H,M164I,V67I,V114I transgenic plants", "test": "Water loss from detached aerial rosettes", "format": "in vivo, Arabidopsis", "details": "100 μM spray, approximately 16 hours pretreatment, FIG. 6A-C", "method": "FIGS. 6A-6C. Fenhexamid reduces water loss in transgenic PYL2^K64R, Y124H, M164I, V67I, V114I expressing plants. Shown are three independent water loss experiments (FIGS. 6A-C) conducted on transgenic plants treated with control, 100 μM fenhexamid, or 100 μM ABA containing solutions. Plants were treated as described in the Examples section below and water loss from aerial rosettes was measured after detachment.\nTransgenic or control (wild-type) plants were grown under a 16 hr light/8 hr dark cycle for 3 weeks and then treated with either 100 μM (+)-ABA, 100 μM fenhexamid, or control (containing 0.1% Tween-20, 0.1% DMSO). ABA treatments were conducted as a positive control. The plants were sprayed in the evening prior to conducting water loss experiments. The next morning, approximately 16 hours post-treatment, the above-ground rosettes of the experimental samples were collected and transferred to weighing dishes, 8 plants per measured sample, and maintained under ˜90-100 μEinstein/m^2 fluorescent light illumination. Four groups of eight plants were measured per time point at 20 min intervals. The experiments were repeated three times over the course of an eight-week interval. […]"}}}
{"smiles": "CC1(C(=O)Nc2ccc(O)c(Cl)c2Cl)CCCCC1", "note": "[fenhexamid]", "values": [{"measurement": "Growth in response to fenhexamid (selection)", "setting": "[1]", "result": "fenhexamid responsive"}, {"measurement": "Post-germination arrest on fenhexamid", "setting": "[2]", "result": "do not"}, {"measurement": "Seedling growth on fenhexamid", "setting": "[3]", "result": "strong growth inhibition"}, {"measurement": "Receptor activation (inhibition of PP2C activity)", "setting": "[4]", "result": "activated"}, {"measurement": "Water loss from detached rosettes", "setting": "[5]", "result": "does not affect water loss"}, {"measurement": "Water loss from detached rosettes", "setting": "[6]", "result": "sufficient to reduce water loss"}]}
